For 10 molecules, MIC results are on record in ChEMBL document CHEMBL3414508, “A few atoms make the difference: synthetic, CD, NMR and computational studies on antiviral and antibacterial activities of glycopeptide antibiotic aglycon derivatives” (Eur J Med Chem, 2015).

What all share (type): functional
For assay [1], the system named is Enterococcus faecalis. Briefly: Antibacterial activity against VanA+ Enterococcus faecalis 15376 by broth microdilution method.
For assay [2], the system named is Enterococcus faecalis. Kind of assay: Antibacterial activity against VanB+ Enterococcus faecalis ATCC 51299 by broth microdilution method.
Assay [3] deals with Staphylococcus aureus. Kind of assay: Antibacterial activity against methicillin-resistant Staphylococcus aureus ATCC 33591 by broth microdilution method.
Assay [4] deals with Staphylococcus epidermidis. Kind of assay: Antibacterial activity against biofilm producing Staphylococcus epidermidis ATCC 35984 by broth microdilution method.
Assay [5] concerns Staphylococcus epidermidis. Briefly: Antibacterial activity against Staphylococcus epidermidis expressing mecA by broth microdilution method.
Assay [6] relates to Enterococcus faecalis. Briefly: Antibacterial activity against Enterococcus faecalis ATCC 29212 by broth microdilution method.
Assay [7] deals with Bacillus spizizenii. Briefly: Antibacterial activity against Bacillus subtilis ATCC 6633 by broth microdilution method.
Assay [8] has as its system Staphylococcus aureus. Kind of assay: Antibacterial activity against methicillin-sensitive Staphylococcus aureus ATCC 29213 by broth microdilution method.

Values after ≈ are worked out from the molar mass of the structure shown.

As to `O=C1N[C@H]2C(=O)N[C@H]3C(=O)N[C@H](C(=O)N[C@H](C(=O)O)c4cc(O)cc(O)c4-c4cc3ccc4O)[C@H](O)c3ccc(c(Cl)c3)Oc3cc2cc(c3O)Oc2ccc(cc2Cl)C[C@H]2NC(=O)[C@H](Nc3c(NCc4ccc(-c5ccccc5)cc4)c(=O)c3=O)c3ccc(O)c(c3)Oc3cc(O)cc(c3)[C@@H]1NC2=O`, the MIC in assay [1] stood at 1 mg/L (≈ 0.685 µM); in assay [2], 8 mg/L (≈ 5.48 µM); in assay [3] it was 2 mg/L (≈ 1.37 µM); in assay [4], 0.5 mg/L (≈ 0.342 µM); in assay [5] it was 2 mg/L (≈ 1.37 µM); in assay [6], 1 mg/L (≈ 0.685 µM). The MIC in assay [7] was 8 mg/L (≈ 5.48 µM); in assay [8] it was 2 mg/L (≈ 1.37 µM).

Turning to `Cc1c(O)cc2cc1Oc1cc(ccc1O)[C@@H](N)C(=O)N[C@H]1C(=O)N[C@@H]2C(=O)N[C@H]2C(=O)N[C@H]3C(=O)N[C@H](C(=O)N[C@@H](C(=O)O)c4cc(O)cc(O[C@H]5O[C@H](CO)[C@@H](O)[C@H](O)[C@@H]5O)c4-c4cc3ccc4O)[C@H](O[C@H]3C[C@@H](N)[C@@H](O)[C@H](C)O3)c3ccc(cc3)Oc3cc2cc(c3O[C@H]2O[C@@H](CO[C@H]3O[C@H](C)[C@@H](O)[C@H](O)[C@@H]3O)[C@H](O)[C@@H](O)[C@@H]2O[C@H]2O[C@H](CO)[C@@H](O)[C@H](O)[C@@H]2O[C@H]2O[C@H](CO)[C@@H](O)[C@@H]2O)Oc2ccc(cc2)[C@H]1O` [RISTOCETIN], the MIC in assay [1] was 16 mg/L (≈ 7.79 µM); in assay [2], 256 mg/L (≈ 125 µM); in assay [3], 32 mg/L (≈ 15.6 µM); in assay [4], 2 mg/L (≈ 0.974 µM); in assay [5], 128 mg/L (≈ 62.3 µM); in assay [6], 4 mg/L (≈ 1.95 µM). Further, the MIC in assay [7] was determined as 16 mg/L (≈ 7.79 µM); in assay [8], 128 mg/L (≈ 62.3 µM).

As to `COC(=O)[C@H]1NC(=O)[C@H]2NC(=O)[C@H](NC(=O)[C@@H]3NC(=O)[C@H]4NC(=O)[C@H](NC(=O)[C@H](Nc5c(NCc6ccc(-c7ccccc7)cc6)c(=O)c5=O)c5ccc(O)c(c5)Oc5cc4cc(O)c5C)[C@H](O)c4ccc(cc4)Oc4cc3cc(c4O)Oc3ccc(cc3)[C@H]2O)c2ccc(O)c(c2)-c2c(O)cc(O)cc21`, the MIC in assay [2] came out at 8 mg/L (≈ 5.57 µM); in assay [3], 8 mg/L (≈ 5.57 µM); in assay [4] it was 2 mg/L (≈ 1.39 µM); in assay [5], 2 mg/L (≈ 1.39 µM); in assay [6], 1 mg/L (≈ 0.697 µM); in assay [7], 2 mg/L (≈ 1.39 µM). This molecule displayed an MIC in assay [8] of 1 mg/L (≈ 0.697 µM).

As to `CC(=O)N[C@H]1[C@H](O[C@@H]2c3ccc(c(Cl)c3)Oc3cc4cc(c3O)Oc3ccc(cc3Cl)C[C@H]3NC(=O)[C@H](Nc5c(NCc6ccc(-c7ccccc7)cc6)c(=O)c5=O)c5ccc(O)c(c5)Oc5cc(O)cc(c5)[C@H](NC3=O)C(=O)N[C@H]4C(=O)N[C@H]3C(=O)N[C@@H]2C(=O)N[C@H](C(=O)O)c2cc(O)cc(O)c2-c2cc3ccc2O)O[C@H](CO)[C@@H](O)[C@@H]1O`, the MIC came to 256 mg/L (≈ 154 µM) in assay [1]; 8 mg/L (≈ 4.81 µM) in assay [2]; 4 mg/L (≈ 2.4 µM) in assay [3]; 1 mg/L (≈ 0.601 µM) in assay [4]; 1 mg/L (≈ 0.601 µM) in assay [5]; 4 mg/L (≈ 2.4 µM) in assay [6]. Also, the MIC in assay [7] came out at 4 mg/L (≈ 2.4 µM); in assay [8], 1 mg/L (≈ 0.601 µM).

Consider `COC(=O)[C@H]1NC(=O)[C@H]2NC(=O)[C@H](NC(=O)[C@@H]3NC(=O)[C@H]4NC(=O)[C@@H](Cc5ccc(c(Cl)c5)Oc5cc3cc(c5O)Oc3ccc(cc3Cl)[C@H]2O[C@@H]2O[C@H](CO)[C@@H](O)[C@H](O)[C@H]2NC(C)=O)NC(=O)[C@H](N)c2ccc(O)c(c2)Oc2cc(O)cc4c2)c2ccc(O)c(c2)-c2c(O)cc(O)cc21`, for which the MIC in assay [1] was 0.5 mg/L (≈ 0.353 µM); in assay [2], 1 mg/L (≈ 0.706 µM); in assay [3], 1 mg/L (≈ 0.706 µM); in assay [4], 0.5 mg/L (≈ 0.353 µM); in assay [5], 0.5 mg/L (≈ 0.353 µM); in assay [6], 2 mg/L (≈ 1.41 µM). Also, the MIC in assay [7] and in assay [8] was 0.5 mg/L (≈ 0.353 µM) in each case.

With `COC(=O)[C@H]1NC(=O)[C@H]2NC(=O)[C@H](NC(=O)[C@@H]3NC(=O)[C@H]4NC(=O)[C@@H](Cc5ccc(cc5)Oc5cc3cc(c5O)Oc3ccc(cc3)[C@H]2O)NC(=O)[C@H](Nc2c(NCc3ccc(-c5ccccc5)cc3)c(=O)c2=O)c2ccc(O)c(c2)Oc2cc(O)cc4c2)c2ccc(O)c(c2)-c2c(O)cc(O)cc21`, the MIC was found to be 16 mg/L (≈ 11.4 µM) in assay [1]; 4 mg/L (≈ 2.85 µM) in assay [2]; 32 mg/L (≈ 22.8 µM) in assay [3]; 32 mg/L (≈ 22.8 µM) in assay [4]; 8 mg/L (≈ 5.69 µM) in assay [5]; 4 mg/L (≈ 2.85 µM) in assay [6]. The MIC was 16 mg/L (≈ 11.4 µM) in assay [7] and 8 mg/L (≈ 5.69 µM) in assay [8].

Regarding `COC(=O)[C@H]1NC(=O)[C@H]2NC(=O)[C@H](NC(=O)[C@@H]3NC(=O)[C@H]4NC(=O)[C@@H](Cc5ccc(c(Cl)c5)Oc5cc3cc(c5O)Oc3ccc(cc3Cl)[C@H]2O)NC(=O)[C@H](Nc2c(NCc3ccc(-c5ccccc5)cc3)c(=O)c2=O)c2ccc(O)c(c2)Oc2cc(O)cc4c2)c2ccc(O)c(c2)-c2c(O)cc(O)cc21`, the MIC in assay [1] was 128 mg/L (≈ 86.8 µM); in assay [2], 256 mg/L (≈ 174 µM); in assay [3], 256 mg/L (≈ 174 µM); in assay [4], 256 mg/L (≈ 174 µM); in assay [5], 32 mg/L (≈ 21.7 µM); in assay [6] it was 64 mg/L (≈ 43.4 µM). Besides, the MIC in assay [7] was 256 mg/L (≈ 174 µM); in assay [8], 128 mg/L (≈ 86.8 µM).

Regarding `COc1c(N[C@H]2C(=O)N[C@@H]3Cc4ccc(c(Cl)c4)Oc4cc5cc(c4O)Oc4ccc(cc4Cl)[C@@H](O)[C@@H]4NC(=O)[C@H](NC(=O)[C@@H]5NC(=O)[C@@H](NC3=O)c3cc(O)cc(c3)Oc3cc2ccc3O)c2ccc(O)c(c2)-c2c(O)cc(O)cc2[C@@H](C(=O)O)NC4=O)c(=O)c1=O`, the MIC in assay [1] is 2 mg/L (≈ 1.53 µM); in assay [2], 8 mg/L (≈ 6.11 µM); in assay [3], 2 mg/L (≈ 1.53 µM); in assay [4] it was 2 mg/L (≈ 1.53 µM); in assay [5], 2 mg/L (≈ 1.53 µM); in assay [6] it was 4 mg/L (≈ 3.06 µM). The figures for the MIC in assay [7] and in assay [8] were 16 mg/L (≈ 12.2 µM) and 1 mg/L (≈ 0.764 µM), respectively.

As for `COC(=O)[C@H]1NC(=O)[C@H]2NC(=O)[C@H](NC(=O)[C@@H]3NC(=O)[C@H]4NC(=O)[C@@H](Cc5ccc(c(Cl)c5)Oc5cc3cc(c5O)Oc3ccc(cc3Cl)[C@H]2O[C@@H]2O[C@H](CO)[C@@H](O)[C@H](O)[C@H]2NC(C)=O)NC(=O)[C@H](Nc2c(NCc3ccc(-c5ccccc5)cc3)c(=O)c2=O)c2ccc(O)c(c2)Oc2cc(O)cc4c2)c2ccc(O)c(c2)-c2c(O)cc(O)cc21`, the MIC in assay [1], in assay [2], in assay [3], in assay [4], in assay [5] and in assay [6] was 0.5 mg/L (≈ 0.298 µM) each time. The MIC in assay [7] came to 8 mg/L (≈ 4.77 µM); in assay [8] it was 2 mg/L (≈ 1.19 µM).

As for `COC(=O)[C@H]1NC(=O)[C@H]2NC(=O)[C@H](NC(=O)[C@@H]3NC(=O)[C@H]4NC(=O)[C@@H](Cc5ccc(c(Cl)c5)Oc5cc3cc(c5O)Oc3ccc(cc3Cl)[C@H]2O[C@@H]2O[C@H](CO)[C@@H](O)[C@H](O)[C@H]2NC(C)=O)NC(=O)[C@H](Nc2c(OC)c(=O)c2=O)c2ccc(O)c(c2)Oc2cc(O)cc4c2)c2ccc(O)c(c2)-c2c(O)cc(O)cc21`, the MIC stood at 0.5 mg/L (≈ 0.328 µM) in assay [1]; 4 mg/L (≈ 2.62 µM) in assay [2]; 8 mg/L (≈ 5.24 µM) in assay [3]; 4 mg/L (≈ 2.62 µM) in assay [4]; 8 mg/L (≈ 5.24 µM) in assay [5]; 2 mg/L (≈ 1.31 µM) in assay [6]. For the same molecule, the MIC in assay [7] is 8 mg/L (≈ 5.24 µM); in assay [8] it was 2 mg/L (≈ 1.31 µM).
